From patent US20080254152A1, “Methods for Reducing the Effects of Stress on Skin Condition” (priority 2003, published 2008)

Columns and labels:
Format in all cases: cell-based
[1] = test system: MMP-1 expression in human neonatal dermal fibroblast cells; assay: Active MMP-1 in neonatal-derived human dermal fibroblasts after chronic dexamethasone and PMA; settings: for Suppression of MMP-1 synthesis and secretion vs control, untreated cells: chronic 1 μM dexamethasone 5 days then 1 μM PMA, neonatal fibroblasts
Method: (§1) In this study, to understand better the effect of chronic stress on dermal matrix remodelling in the skin, we have therefore measured changes in markers of dermal matrix degradation (MMP-1) and dermal matrix synthesis (Procollagen I) in chronically glucocorticoid-treated primary human dermal fibroblasts, following acute stress with PMA. The experimental approach is similar to that described in example 1 except that the cells tested are dermal fibroblasts and cells are assayed for expression of procollagen-1, MMP-1 and MMP-9 expression.
(§2) Primary human dermal fibroblast cells were cultured and passaged in DMEM (Gibco) supplemented with 10% FBS (foetal bovine serum). Cells were routinely plated out in 6-well tissue culture dishes, at a seeding density of ˜5000 cells/cm^2 in 2 ml complete medium/well for 24 hours, and incubated at 37° C. in 5% CO2. Media was removed and cells grown in DMEM & 1% FBS, 24 hours prior to treatments.
(§3) Pre-treatment and test solutions were prepared in DMEM containing low serum (1% FBS). […] Following this, the cells were oxidatively stressed for 24 hours with 1 μM PMA (Sigma P8139).
(§4) MMP-1 and MMP-9 protein in each cell supernatant was estimated using the Human active MMP-1 and MMP-9 Fluorokine enzyme kit (R&D Systems F1M00 and F9M00, respectively), according to the manufacturer's instructions.
(§5) Six MMP-1 and MMP-9 standards were prepared in calibrator diluent at concentrations ranging from 0.39 to 12.5 ng/ml and 0.25 to 16 ng/ml, respectively. 100 μl of assay diluent and 150 μl of tissue culture supernatant or standard was added to duplicate wells. The plate was incubated at room temperature for 3 hours on a horizontal orbital plate shaker before being washed four times with wash buffer. 200 μl of APMA was added to each well and the plate incubated at 37° C. for 2 hours in a humidified environment and protected from the light. The plate was washed as before. Each well received 200 μl of substrate solution and the plate incubated at 37° C. for 17-20 hours in a humidified environment and protected from the light. The relative fluorescence unit (RFU) of each well was determined using a fluorescence plate set with 1×20 mS integration time, plate speed ˜6; excitation wavelength set to 320 nm and emission wavelength set to 405 nm.
(§6) A standard curve was plotted of mean RFU versus MMP-1 and MMP-9 concentration (respectively), and the line of best fit calculated by regression analysis. The unknown concentration of either active MMP-1 or MMP-9 protein in all of the samples was estimated from this.
(§7) The same methods were used as described in Example 2, except that various test agents were added to the cells during the pre-treatment period.

[2] = test system: MMP-1 expression in human adult-derived dermal fibroblast cells; assay: Active MMP-1 in adult-derived human dermal fibroblasts after chronic dexamethasone and PMA; settings: for Suppression of MMP-1 synthesis vs control, untreated cells: chronic dexamethasone then 1 μM PMA, adult fibroblasts
Method: as §1, §2, §3, §4, §5, §6

[3] = test system: procollagen-1 expression in human neonatal dermal fibroblast cells; assay: Procollagen I C-peptide EIA in neonatal-derived human dermal fibroblasts after chronic dexamethasone and PMA; settings: chronic dexamethasone then 1 μM PMA; T6; neonatal fibroblasts; FIG. 8
Method: as §1, §2, §3
Collagen I is synthesised as a precursor molecule, Procollagen I. The amount of free propeptide therefore, reflects stoichiometrically, the amount of collagen I synthesised. The Procollagen Type I C-peptide Enzyme Immunoassay (EIA) kit allows for the quantitative determination of Procollagen Type I C-peptide (PIP).
Eight PIP standards were prepared in sample diluent at concentrations ranging from 0 to 640 ng/ml. 100 μl of antibody-Peroxidase conjugate solution and 20 μl of cell lysate (1 μg protein) or standard was added to duplicate wells. The plate was sealed and incubated at 37° C. for 3 hours before being washed four times with 400 μl of PBS. Each well then received 100 μl of substrate solution and the plate incubated at room temperature, on the benchtop, for 15 minutes. After this period, 100 μl stop solution was added to each well and absorbance measured at 450 nm with a plate reader.
A standard curve was plotted of mean absorbance versus PIP concentration and the line of best fit calculated by regression analysis. The unknown concentration of PIP in all the samples was estimated from this.
as §7

With `C[C@@H]1C[C@H]2[C@@H]3CCC4=CC(=O)C=C[C@]4(C)[C@@]3(F)[C@@H](O)C[C@]2(C)[C@@]1(O)C(=O)CO` [Dexamethasone] as the compound, how does the “Level of active MMP-1” value ([1]; GC-treated neonate fibroblasts) read?
The value was 15 ng/mL.

And the “Suppression of MMP-1 synthesis and secretion vs control, untreated cells” value ([1]; T6)?
Its value is roughly 60%.

What about the “Suppression of MMP-1 synthesis and secretion vs control, untreated cells” value ([1]; T24) of the same compound?
Its value is 80%.

What about the “Suppression of MMP-1 synthesis and secretion vs control, untreated cells” value ([1]; T48) of the same compound?
Its value is 70%.

What about the “Level of active MMP-1” value ([2]; GC-treated adult fibroblasts) of the same compound?
Its value is roughly 25 ng/mL.

What about the “Suppression of MMP-1 synthesis vs control, untreated cells” value ([2]; T6) of the same compound?
The value was roughly 85%.

And the “Suppression of MMP-1 synthesis vs control, untreated cells” value ([2]; T24)?
The value was 10%.

What about the “Suppression of MMP-1 synthesis vs control, untreated cells” value ([2]; T48) of the same compound?
The value was 80%.

What about the “Inhibition of Procollagen-1 synthesis vs control, untreated cells” value [3] of the same compound?
Its value is roughly 50%.
